The target in one experiment is T1, F1F0-ATPase (Bos taurus, UniProt P13621).
T1 construct: from tissue
The experiment is described as follows: Inhibition of F1F0-ATPase activity in synthesizing ATP. In kind it is biochemical. As to conditions: inhibition of ATP synthesis by F1F0-ATPase; read-out: ATP Syn IC50.

The subject of another experiment is Ramos cells. Briefly: Cytotoxicity in Ramos cells. In kind it is cell-based. As to conditions: cytotoxicity in Ramos cells, read-out: Ramos Cell EC50.

Like-named read-outs stand apart in the source and are kept apart here.

One may read the IC50 as the concentration that inhibits the measured activity by half. Usually EC50 stands for the concentration at which the effect is half-maximal. Regarding `CC(C)CNC(=NC(=O)c1ccc(Cl)cc1)Nc1cc(-c2ccc(F)cc2)n[nH]1` [Compound A-249], the IC50 at F1F0-ATPase is less than 10 µM. In addition, the EC50 in the experiment on Ramos cells (Homo sapiens) was less than 10 µM.
As for `CC(C)N/C(=N/C(=O)c1ccc(Cl)cc1)Nc1cc(-c2ccc(F)cc2)n[nH]1` [Compound A-250], the concentration for half-maximal inhibition (IC50) at F1F0-ATPase is less than 10 µM. The EC50 in the experiment with Ramos cells was less than 10 µM.
Turning to `O=C(/N=C(\Nc1cc(-c2ccc(Cl)cc2)n[nH]1)NC1CCC1)c1ccc(F)cc1` [Compound A-251], the half-maximal inhibitory concentration (IC50) on F1F0-ATPase is less than 10 µM. In addition, in the experiment with Ramos cells, the EC50 is less than 10 µM.
`CCOCC(C)NC(=NC(=O)c1ccc(F)cc1)Nc1cc(-c2ccc(Cl)cc2)n[nH]1` (stereo not drawn) [Compound A-252]: the IC50 at F1F0-ATPase was less than 10 µM. Further, the EC50 with Ramos cells (Homo sapiens) is less than 10 µM.
As for `O=C(/N=C(\Nc1cc(-c2ccc(Cl)cc2)n[nH]1)NC1CCCC1)c1ccc(F)cc1` [Compound A-253], the IC50 at F1F0-ATPase was less than 10 µM. Further, the EC50 in the experiment on Ramos cells is less than 10 µM.
Take `CC(C)CN/C(=N/C(=O)c1ccc(F)cc1)Nc1cc(-c2ccc(Cl)cc2)n[nH]1` [Compound A-254]: the IC50 on F1F0-ATPase was less than 10 µM. For the same molecule, the EC50 with Ramos cells was less than 10 µM.
With `CC(C)NC(=NC(=O)c1ccc(F)cc1)Nc1cc(-c2ccc(Cl)cc2)n[nH]1` [Compound A-255], the IC50 at F1F0-ATPase was less than 10 µM. Also, the EC50 in the experiment on Ramos cells (Homo sapiens) is less than 10 µM.
For the molecule `CCOCC(C)NC(=NC(=O)c1cccc(F)c1)Nc1cc(-c2ccc(F)cc2)n[nH]1` (stereo not drawn) [Compound A-256], the 50% inhibitory concentration (IC50) at F1F0-ATPase is less than 10 µM. Further, in the experiment with Ramos cells, the EC50 is less than 10 µM.
As for `CC(C)CN/C(=N/C(=O)c1cccc(F)c1)Nc1cc(-c2ccc(F)cc2)n[nH]1` [Compound A-257], the half-maximal inhibitory concentration (IC50) on F1F0-ATPase was less than 10 µM. For the same molecule, the EC50 in the experiment on Ramos cells is less than 10 µM.
Consider `CCOCC(C)NC(=NC(=O)c1ccc(F)c(F)c1)Nc1cc(-c2ccc(Cl)cc2)n[nH]1` (stereo not drawn) [Compound A-258], for which the half-inhibitory concentration (IC50) at F1F0-ATPase was less than 10 µM. Also, in the experiment on Ramos cells, the EC50 is less than 10 µM.
Turning to `O=C(N=C(Nc1cc(-c2ccc(F)cc2)n[nH]1)NC1CCC1)c1ccc(F)c(F)c1` [Compound A-259], the IC50 at F1F0-ATPase is less than 10 µM. The EC50 in the experiment on Ramos cells (Homo sapiens) is less than 10 µM.
In the case of `O=C(/N=C(\Nc1cc(-c2ccc(F)cc2)n[nH]1)NC1CCCC1)c1ccc(F)c(F)c1` [Compound A-260], the IC50 at F1F0-ATPase was less than 10 µM. Moreover, the EC50 in the experiment on Ramos cells was less than 10 µM.
Turning to `CC(C)CN/C(=N/C(=O)c1ccc(F)c(F)c1)Nc1cc(-c2ccc(F)cc2)n[nH]1` [Compound A-261], on F1F0-ATPase, the concentration for half-maximal inhibition (IC50) is less than 10 µM. The EC50 in the experiment with Ramos cells is less than 10 µM.
`CC(C)N/C(=N/C(=O)c1ccc(F)c(F)c1)Nc1cc(-c2ccc(F)cc2)n[nH]1` [Compound A-262]: the IC50 at F1F0-ATPase was less than 10 µM. In addition, in the experiment with Ramos cells, the EC50 is less than 10 µM.
Regarding `CCOCC(C)NC(=NC(=O)c1ccc(F)c(F)c1)Nc1cc(-c2ccc(F)cc2)n[nH]1` (stereo not drawn) [Compound A-263], the concentration for half-maximal inhibition (IC50) at F1F0-ATPase was less than 10 µM. For the same molecule, the EC50 with Ramos cells was less than 10 µM.
Turning to `O=C(N=C(Nc1cc(-c2ccc(F)cc2)n[nH]1)NC1CCC1)c1ccc(Cl)cc1` [Compound A-264], the IC50 at F1F0-ATPase was less than 10 µM. Besides, the EC50 with Ramos cells (Homo sapiens) was less than 10 µM.
For `CCOC[C@H](C)NC(=NC(=O)c1ccc(Cl)cc1)Nc1cc(-c2ccc(F)cc2)n[nH]1` [Compound A-265], the IC50 on F1F0-ATPase is less than 10 µM. For the same molecule, the EC50 with Ramos cells (Homo sapiens) was less than 10 µM.
Turning to `O=C(/N=C(/NCC1CCO1)Nc1cc(-c2ccc(F)cc2)n[nH]1)c1ccc(F)c(F)c1` (stereo not drawn) [Compound A-266], on F1F0-ATPase, the IC50 was less than 10 µM. In addition, the concentration giving a half-maximal response (EC50) in the experiment with Ramos cells was less than 10 µM.
As for `CCOCC(C)N/C(=N/C(=O)c1ccc(F)c(F)c1)Nc1cc(-c2ccc(F)cc2)n[nH]1` (stereo not drawn) [Compound A-267], the IC50 at F1F0-ATPase was less than 10 µM. The EC50 in the experiment on Ramos cells was less than 10 µM.
For `CCC(COC)N/C(=N/C(=O)c1ccc(F)c(F)c1)Nc1cc(-c2ccc(F)cc2)n[nH]1` (stereo not drawn) [Compound A-268], on F1F0-ATPase, the IC50 was less than 10 µM. In addition, the EC50 in the experiment on Ramos cells is less than 10 µM.
With `CCOCC(C)NC(=NC(=O)c1ccc(F)cc1)Nc1cc(-c2ccc(F)cc2)n[nH]1` (stereo not drawn) [Compound A-269], the IC50 at F1F0-ATPase is less than 10 µM. The half-maximal effective concentration (EC50) in the experiment with Ramos cells is less than 10 µM.
On to `O=C(/N=C(/NCC1CCO1)Nc1cc(-c2ccc(F)cc2)n[nH]1)c1ccc(F)cc1` (stereo not drawn) [Compound A-270], for which, on F1F0-ATPase, the IC50 was less than 10 µM. The EC50 with Ramos cells was greater than 10 µM.
`CC(C)OCCN/C(=N/C(=O)c1ccc(F)cc1)Nc1cc(-c2ccc(F)cc2)n[nH]1` [Compound A-271]: the IC50 on F1F0-ATPase was less than 10 µM. Also, the EC50 in the experiment on Ramos cells was less than 10 µM.
For `COC[C@H](C)N/C(=N/C(=O)c1ccc(Cl)cc1)Nc1cc(-c2ccc(F)cc2)n[nH]1` [Compound A-272], the IC50 at F1F0-ATPase was less than 10 µM. In the experiment on Ramos cells (Homo sapiens), the 50% effective concentration (EC50) is less than 10 µM.
On to `COCC(C)NC(=NC(=O)c1ccc(Cl)c(F)c1)Nc1cc(-c2cc(F)cc(F)c2)n[nH]1` (stereo not drawn) [Compound A-273], for which, on F1F0-ATPase, the IC50 was less than 10 µM. Also, the EC50 with Ramos cells was less than 10 µM.
Turning to `COCC(C)NC(=NC(=O)c1ccc(F)c(F)c1)Nc1cc(-c2ccc(F)cc2)n[nH]1` (stereo not drawn) [Compound A-274], the IC50 at F1F0-ATPase is less than 10 µM. In addition, in the experiment on Ramos cells, the EC50 was less than 10 µM.
For `COCC(C)NC(=NC(=O)c1ccc(F)cc1)Nc1cc(-c2cc(F)cc(F)c2)n[nH]1` (stereo not drawn) [Compound A-275], the IC50 on F1F0-ATPase was less than 10 µM. For the same molecule, the concentration giving a half-maximal response (EC50) in the experiment on Ramos cells is less than 10 µM.
As for `COCC(C)NC(=NC(=O)c1ccc(F)cc1)Nc1cc(-c2ccc(Cl)cc2)n[nH]1` (stereo not drawn) [Compound A-276], the IC50 on F1F0-ATPase is less than 10 µM. For the same molecule, the EC50 in the experiment on Ramos cells is less than 10 µM.
As to `CCOCCCN/C(=N/C(=O)c1ccc(F)c(F)c1)Nc1cc(-c2ccc(Cl)cc2)n[nH]1` [Compound A-277], the IC50 at F1F0-ATPase is less than 10 µM. In addition, the concentration for a half-maximal effect (EC50) with Ramos cells is greater than 10 µM.
For `CCOCCCNC(=NC(=O)c1ccc(Cl)cc1)Nc1cc(-c2ccc(F)cc2)n[nH]1` [Compound A-278], at F1F0-ATPase, the IC50 is less than 10 µM. The EC50 in the experiment on Ramos cells (Homo sapiens) was greater than 10 µM.
For the molecule `CCOCCCN/C(=N/C(=O)c1cccc(F)c1)Nc1cc(-c2ccc(F)cc2)n[nH]1` [Compound A-279], on F1F0-ATPase, the IC50 was less than 10 µM. Further, the EC50 in the experiment with Ramos cells was less than 10 µM.
Regarding `CCOCCCN/C(=N/C(=O)c1ccc(F)cc1)Nc1cc(-c2ccc(F)cc2)n[nH]1` [Compound A-280], the IC50 at F1F0-ATPase is less than 10 µM. Besides, in the experiment on Ramos cells, the EC50 is greater than 10 µM.
As for `CCOCCCN/C(=N/C(=O)c1ccc(F)c(F)c1)Nc1cc(-c2ccc(C)c(F)c2)n[nH]1` [Compound A-281], the IC50 at F1F0-ATPase was less than 10 µM. Moreover, the EC50 in the experiment with Ramos cells is less than 10 µM.
As for `CCOCCCN/C(=N/C(=O)c1ccc(C(F)(F)F)cc1)Nc1cc(-c2cc(F)cc(F)c2)n[nH]1` [Compound A-282], at F1F0-ATPase, the concentration for half-maximal inhibition (IC50) is less than 10 µM. Further, the EC50 in the experiment with Ramos cells is less than 10 µM.
Turning to `CC(C)OCCCNC(=NC(=O)c1ccc(F)c(F)c1)Nc1cc(-c2cc(F)cc(Cl)c2)n[nH]1` [Compound A-283], the concentration for half-maximal inhibition (IC50) on F1F0-ATPase is less than 10 µM. The EC50 in the experiment on Ramos cells (Homo sapiens) is less than 10 µM.
Turning to `O=C(/N=C(\Nc1cc(-c2cc(F)cc(Cl)c2)n[nH]1)NC1CCC1)c1ccc(F)c(F)c1` [Compound A-284], on F1F0-ATPase, the IC50 is less than 10 µM. Moreover, the concentration giving a half-maximal response (EC50) in the experiment with Ramos cells is less than 10 µM.
Take `CCC(C)NC(=NC(=O)c1ccc(F)c(F)c1)Nc1cc(-c2cc(F)cc(Cl)c2)n[nH]1` (stereo not drawn) [Compound A-285]: the IC50 on F1F0-ATPase was less than 10 µM. Besides, the EC50 in the experiment on Ramos cells (Homo sapiens) is less than 10 µM.
Consider `CC(C)N/C(=N/C(=O)c1ccc(F)c(F)c1)Nc1cc(-c2cc(F)cc(Cl)c2)n[nH]1` [Compound A-286], for which the IC50 on F1F0-ATPase was less than 10 µM. The EC50 in the experiment on Ramos cells is less than 10 µM.
For the molecule `CC(C)CN/C(=N/C(=O)c1ccc(F)c(F)c1)Nc1cc(-c2cc(F)cc(Cl)c2)n[nH]1` [Compound A-287], the half-inhibitory concentration (IC50) on F1F0-ATPase is less than 10 µM. Also, the EC50 in the experiment with Ramos cells was less than 10 µM.

These data come from patent US9139532B2, “Pyrazolyl guanidine F1F0-atpase inhibitors and therapeutic uses thereof” (Lycera Corporation, priority 2010, dated 2015).
